Measurements as given in patent US12390498B2, “Treatment of clostridium difficile infection” (Vedanta Biosciences, Inc., priority 2016, dated 2025).

Experiments:
[1] = tested on: Clostridium difficile infection (CDI); conditions: cited from earlier work
[2] = Short-chain fatty acid producing abilities of Composition F strains

Row | Molecule | treated patients experiencing CDI relapse ([1]; CDI patients) | preventing recurrent CDI ([1]; comparison with vancomycin) | SCFAs (short chain fatty acids produced) [2]
1 | CCc1c(Cl)c(O)c(Cl)c(O)c1C(=O)O[C@H]1[C@H](O)[C@H](OC)[C@H](OC/C2=C\C=C\C[C@H](O)/C(C)=C/[C@H](CC)[C@@H](O[C@@H]3OC(C)(C)[C@@H](OC(=O)C(C)C)[C@H](O)[C@@H]3O)/C(C)=C/C(C)=C/C[C@@H]([C@@H](C)O)OC2=O)O[C@@H]1C [fidaxomicin] | 14% | superior to vancomycin | –
2 | Bacteroides cellulosilyticus | – | – | A, S
